Measured values taken from US20100285146A1, “PEPTIDES AND METHODS FOR THE TREATMENT OF SYSTEMIC LUPUS ERYTHEMATOSUS” (priority 2007, published 2010).
No end group written: not given here.

Tests used:
[1] = test system: C72 murine anti-DNA antibody; test: Anti-peptide direct binding ELISA with C72; details: for C72 Binding: direct binding ELISA, footnote: O.D. after one (1) hour; for binding of C72 murine anti-DNA antibody to laminin peptides (FIG. 1): ELISA, C72 conditioned medium in various dilutions
Protocol: (§1) Wells were coated with 10 μg/ml of the peptides, blocked with 1% BSA (bovine serum albumin) in PBS (pH 7.4), reacted with appropriately diluted plasma or monoclonal antibodies, incubated with anti-human or anti-mouse immunoglobulin enzyme conjugated to alkaline phosphatase and detected by addition of substrate (Sigma 100 Phosphatase Substrate Tablets) and color development using an Organon Teknika Microwell System spectrometer at wavelength of 405 nm.
The interaction of the C72 murine anti-DNA antibody with laminin peptides was analyzed by ELISA as described above. The C72 conditioned medium was diluted in PBS in various dilutions.
(§2) The peptides of the present invention were tested for their ability to bind directly with C72 murine anti-DNA antibodies and B3 human anti-DNA antibodies according to the method described hereinabove.

[2] = test system: B3 human anti-DNA antibodies; test: Anti-peptide direct binding ELISA with B3; details: direct binding ELISA; footnote: O.D. after two (2) hours
Protocol: as §1
The human monoclonal anti-DNA antibodies DIL 6 and B3 were derived from lupus patients by the hybridoma technique. […] In FIGS. 3 and 4, the peptides are referred to as denoted above or as follows; AS30 is R27, AS19 is R35, AS35 is R26, AS17 is R28 and AS6 is R18.
as §2

C72 anti-DNA antibody = test: Competitive inhibition of C72 binding to R38 (5100); parameters: species or system murine; details: concentration of competitive inhibitor giving 50% inhibition, ELISA
From the text: A competitive inhibition study compared how each of the peptides competes with R38 (5100) for binding to the C72 anti-DNA antibody. Conducted according to the methods described hereinabove, the results of the study are disclosed in Table 4 below and are further elucidated by reference to FIG. 10.

[3] = test system: C72 murine anti-DNA antibody; test: Competitive inhibition of the binding of C72 to 5200; details: after incubation of C72 with the inhibiting agent
Protocol: The binding of C72 to 5200 was tested before and after incubation with 5200, R38, R18, Heparin, DNA and DNase. […] The percent inhibition is the percent reduction of the O.D. after incubation with the inhibiting agent.

[4] = test system: MRL/1pr/1pr urine antibodies; test: Binding of murine urinary immunoglobulins, MRL/1pr/1pr urine; parameters: species or system mice; details: pooled urine of MRL/1pr/1pr mice
Protocol: as §1
(§3) Thus, pooled urine from at least 5 mice (either MRL/1pr/1pr or control mice, e.g. BALB/c) was added to wells coated with R38′ (5200), R18 or DNA as described above and bound 5200 assayed by ELISA.
(§4) Each group is comprised of pooled urine.

[5] = test system: BALB/c urinary immunoglobulins; test: Binding of murine urinary immunoglobulins, BALB/c control urine; details: pooled urine of BALB/c control mice
Protocol: as §1, §3, §4

[6] = test system: urine antibodies of lupus patients; test: Urine anti-peptide antibody ELISA in patients; format: binding, human
[7] = biological target: C72 murine anti-DNA antibody; test: competitive inhibition ELISA: peptide in solution against binding of C72 to coated 5100

| Molecule | C72 Binding [1] [O.D.] | B3 Binding [2] [O.D.] | IC50 [7] [µg/mL] | also measured |
| --- | --- | --- | --- | --- |
| KEGYKVRLDLNITLAFRTTSK [Peptide 5110] | 2.8 | 1.83 |  | 50% Inhibition of C72 binding to mouse R38 (5100) (C72 anti-DNA antibody): 0.7 µg/mL |
| VQSDVNITLEFR [Peptide 5111] | 0.01 | 0.01 |  |  |
| DNA |  |  |  | inhibition of the binding of C72 to 5200 (FIG. 2) [3]: inhibition; Binding of murine urinary immunoglobulins to antigen [4]: U.D.; Binding of murine urinary immunoglobulins to antigen [5]: U.D. |
| KEGYKVRLDLNITLEF [Peptide 5101] | 1.11 | 0.1 |  | 50% Inhibition of C72 binding to mouse R38 (5100) (C72 anti-DNA antibody): 5 µg/mL |
| AEGYAVALDLNITLEFATTSA [Peptide 5104] | 0.06 | 0.02 |  |  |
| KEGYKVELDLNITLEFRTTSK [Peptide 5106] | 1.9 | 0.16 |  | 50% Inhibition of C72 binding to mouse R38 (5100) (C72 anti-DNA antibody): 2.5 µg/mL |
| KEGYKVELDLNITLEFETTSK [Peptide 5105] | 0.07 | 0.02 |  |  |
| heparin |  |  |  | inhibition of the binding of C72 to 5200 (FIG. 2) [3]: inhibition |
| KQNCLSSRASFRGCVRNLRLSR [Peptide R30, laminin derived peptide, residues 3011-3032] | 0.75 |  |  | binding of C72 murine anti-DNA antibody to laminin peptides (FIG. 1) [1]: binding |
| CC[C@H](C)[C@H](NC(=O)[C@H](CC(N)=O)NC(=O)[C@H](CC(C)C)NC(=O)[C@H](CC(=O)O)NC(=O)[C@H](CC(C)C)NC(=O)[C@H](CCCNC(=N)N)NC(=O)[C@@H](NC(=O)[C@H](CCCCN)NC(=O)[C@H](Cc1ccc(O)cc1)NC(=O)CNC(=O)[C@H](CCC(=O)O)NC(=O)[C@@H](N)CCCCN)C(C)C)C(=O)N[C@H](C(=O)N[C@@H](CC(C)C)C(=O)N[C@@H](CCC(=O)O)C(=O)N[C@@H](Cc1ccccc1)C(=O)N[C@@H](CCC(=O)O)C(=O)N[C@H](C(=O)N[C@H](C(=O)N[C@@H](CO)C(=O)N[C@@H](CCCCN)C(=O)O)[C@@H](C)O)[C@@H](C)O)[C@@H](C)O [Peptide 5107] | 0.05 | 0.01 |  | 50% Inhibition of C72 binding to mouse R38 (5100) (C72 anti-DNA antibody): 85 µg/mL |
| KAGYKVRLALNITLAFRTTSK [Peptide 5108] | 2.75 | 1.93 |  | 50% Inhibition of C72 binding to mouse R38 (5100) (C72 anti-DNA antibody): 2 µg/mL; Urine anti-5108 O.D. (Mean + S.E.) ([6]; Example 9, renal disease absent, 2 samples): 0.064 ± 0.05 O.D.; Urine anti-5108 O.D. (Mean + S.E.) ([6]; Example 9, renal disease present, 22 samples): 0.672 ± 0.1 O.D. |
| DGKWHTVKTEYIKRKAF [Peptide R28, laminin derived peptide, residues 2779-2795] | 0.01 |  |  |  |
| KEGYKVRLALNITLEFRTTSK [Peptide 5109] | 2.72 | 1.94 |  | 50% Inhibition of C72 binding to mouse R38 (5100) (C72 anti-DNA antibody): 0.7 µg/mL |
| LDLNITEFRTTSK [Peptide 5103] | 0.03 | 0.02 |  |  |
| RPVRHAQCRVCDGNSTNPRERH [Peptide R18, peptide from the N-terminal of mouse laminin alpha chain, residues 42-63, reference compound] | 0.01 |  |  | Binding of murine urinary immunoglobulins to antigen [4]: U.D.; Binding of murine urinary immunoglobulins to antigen [5]: U.D. |
| KATPMLKMRTSFHGCIK [Peptide R37, laminin derived peptide, residues 2615-2631] | 1.8 |  |  | binding of C72 murine anti-DNA antibody to laminin peptides (FIG. 1) [1]: binding |
| VRLDLNITLEFR [Peptide 5102] | 0.1 | 0.02 |  | 50% Inhibition of C72 binding to mouse R38 (5100) (C72 anti-DNA antibody): 30 µg/mL |
| KEGYKVQSDLNITLEFRTSSQ [Peptide 5300] | 0.03 | 0.03 |  | 50% Inhibition of C72 binding to mouse R38 (5100) (C72 anti-DNA antibody): 85 µg/mL |
| KEGYKVRLDLNITLEFRTTSK [R38 peptide (5100), mouse R38] |  |  | 10 |  |
| KEGYKVELDLNITLEFRTTSK [5106 peptide (charge subst. to neg. at 5100 a.a. 7)] |  |  | 2.5 |  |
| KEGYKVQSDVNITLEFRTSSQ [5300 peptide, human R38] |  |  | 85 |  |
| KEGYKVRLDLNITLEFETTSK [5107 peptide (charge subst. to neg. at 5100 a.a. 17)] |  |  | 85 |  |
| KEGYKVRLDLNTTLEFRTTSK [5200 peptide (R38′), mouse R38 analog] |  |  | 10 |  |
| KEGYKVRLALNITLEFRTTSK [5109 peptide (Ala subst. of 5100 a.a. 9)] |  |  | 0.7 |  |
| KAGYKVRLALNITLAFRTTSK [5108 peptide (Ala subst. of 5100 at all negative a.a.)] |  |  | 2 |  |
| KEGYKVRLDLNITLEF [5101 peptide (Res. 1-16 of 5100)] |  |  | 5 |  |
| VRLDLNITLEFR [5102 peptide (Res. 6-17 of 5100)] |  |  | 30 |  |
| KEGYKVRLDLNITLAFRTTSK [5110 peptide (Ala subst. of 5100 a.a. 15)] |  |  | 0.7 |  |
